Experiments:
human TLR7 = molecular target: T1, human TLR7 (Homo sapiens, UniProt Q9NYK1); experiment: HEK293-Blue-hTLR-7 cells assay; assay type: cell-based; settings: HEK293-Blue-hTLR7 cells, R848 stimulation, 20 hrs, SEAP reporter; read-out: HEK/hTLR7 IC50
T1 construct: host or cells: HEK293 (HEK-Blue hTLR7)
T1 sequence (Q9NYK1 27-1049): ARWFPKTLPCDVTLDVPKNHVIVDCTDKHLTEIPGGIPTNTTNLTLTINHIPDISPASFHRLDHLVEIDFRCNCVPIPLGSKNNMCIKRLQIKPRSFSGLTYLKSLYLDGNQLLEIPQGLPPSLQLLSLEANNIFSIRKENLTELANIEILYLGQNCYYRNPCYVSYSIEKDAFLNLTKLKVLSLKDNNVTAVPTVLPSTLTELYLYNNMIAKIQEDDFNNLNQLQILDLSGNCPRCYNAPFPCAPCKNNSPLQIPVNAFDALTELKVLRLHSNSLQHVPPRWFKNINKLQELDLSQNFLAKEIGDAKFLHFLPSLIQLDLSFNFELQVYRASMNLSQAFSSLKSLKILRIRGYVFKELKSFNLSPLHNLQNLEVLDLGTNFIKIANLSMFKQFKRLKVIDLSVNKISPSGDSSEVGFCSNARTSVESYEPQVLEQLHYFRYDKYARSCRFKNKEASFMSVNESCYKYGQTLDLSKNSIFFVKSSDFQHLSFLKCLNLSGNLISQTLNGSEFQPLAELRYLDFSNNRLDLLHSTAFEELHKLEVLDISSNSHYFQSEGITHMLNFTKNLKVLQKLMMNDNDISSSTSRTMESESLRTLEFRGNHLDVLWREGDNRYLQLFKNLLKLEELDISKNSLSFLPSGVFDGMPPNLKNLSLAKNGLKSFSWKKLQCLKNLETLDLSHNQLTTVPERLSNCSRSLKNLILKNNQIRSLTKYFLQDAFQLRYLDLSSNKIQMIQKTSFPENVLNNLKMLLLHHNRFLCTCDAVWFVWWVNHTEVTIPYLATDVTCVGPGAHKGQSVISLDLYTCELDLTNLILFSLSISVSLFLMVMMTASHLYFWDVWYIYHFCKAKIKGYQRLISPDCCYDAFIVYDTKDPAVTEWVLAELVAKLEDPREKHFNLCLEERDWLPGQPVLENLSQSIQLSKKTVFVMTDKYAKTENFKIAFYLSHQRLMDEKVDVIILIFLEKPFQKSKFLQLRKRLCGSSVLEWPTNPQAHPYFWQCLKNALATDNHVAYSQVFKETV
Protocol: The following tests were carried out in order to determine the activity of the compounds of formula (I) and (Ia) in HEK293-Blue-hTLR-7/8/9 cells assay.
HEK293-Blue-hTLR-7 cells assay:
A stable HEK293-Blue-hTLR-7 cell line was purchased from InvivoGen (Cat. #: hkb-htlr7, San Diego, Calif., USA). These cells were originally designed for studying the stimulation of human TLR7 by monitoring the activation of NF-κB. A SEAP (secreted embryonic alkaline phosphatase) reporter gene was placed under the control of the […] minimal promoter fused to five NF-κB and AP-1-binding sites. The SEAP was induced by activating NF-κB and AP-1 via stimulating HEK-Blue hTLR7 cells with TLR7 ligands. Therefore, the reporter expression was declined by TLR7 antagonist under the stimulation of a ligand, such as R848 (Resiquimod), for incubation of 20 hrs. The cell culture supernatant SEAP reporter activity was determined using QUANTI-Blue™ kit (Cat. #: rep-qb1, Invivogen, San Diego, Calif., USA) at a wavelength of 640 nm, a detection medium that turns purple or blue in the presence of alkaline phosphatase.
Then 20 μL of the supernatant from each well was incubated with […] Quanti-blue substrate solution at 37° C. for 2 hrs and the absorbance was read at 620-655 nm using a spectrophotometer. The signaling pathway that TLR7 activation leads to downstream NF-κB activation has been widely accepted, and therefore similar reporter assay was modified for evaluating TLR7 antagonist.

human TLR8 = molecular target: T2, human TLR8 (Homo sapiens, UniProt Q9NR97); experiment: HEK293-Blue-hTLR-8 cells assay
T2 sequence (Q9NR97 27-1041): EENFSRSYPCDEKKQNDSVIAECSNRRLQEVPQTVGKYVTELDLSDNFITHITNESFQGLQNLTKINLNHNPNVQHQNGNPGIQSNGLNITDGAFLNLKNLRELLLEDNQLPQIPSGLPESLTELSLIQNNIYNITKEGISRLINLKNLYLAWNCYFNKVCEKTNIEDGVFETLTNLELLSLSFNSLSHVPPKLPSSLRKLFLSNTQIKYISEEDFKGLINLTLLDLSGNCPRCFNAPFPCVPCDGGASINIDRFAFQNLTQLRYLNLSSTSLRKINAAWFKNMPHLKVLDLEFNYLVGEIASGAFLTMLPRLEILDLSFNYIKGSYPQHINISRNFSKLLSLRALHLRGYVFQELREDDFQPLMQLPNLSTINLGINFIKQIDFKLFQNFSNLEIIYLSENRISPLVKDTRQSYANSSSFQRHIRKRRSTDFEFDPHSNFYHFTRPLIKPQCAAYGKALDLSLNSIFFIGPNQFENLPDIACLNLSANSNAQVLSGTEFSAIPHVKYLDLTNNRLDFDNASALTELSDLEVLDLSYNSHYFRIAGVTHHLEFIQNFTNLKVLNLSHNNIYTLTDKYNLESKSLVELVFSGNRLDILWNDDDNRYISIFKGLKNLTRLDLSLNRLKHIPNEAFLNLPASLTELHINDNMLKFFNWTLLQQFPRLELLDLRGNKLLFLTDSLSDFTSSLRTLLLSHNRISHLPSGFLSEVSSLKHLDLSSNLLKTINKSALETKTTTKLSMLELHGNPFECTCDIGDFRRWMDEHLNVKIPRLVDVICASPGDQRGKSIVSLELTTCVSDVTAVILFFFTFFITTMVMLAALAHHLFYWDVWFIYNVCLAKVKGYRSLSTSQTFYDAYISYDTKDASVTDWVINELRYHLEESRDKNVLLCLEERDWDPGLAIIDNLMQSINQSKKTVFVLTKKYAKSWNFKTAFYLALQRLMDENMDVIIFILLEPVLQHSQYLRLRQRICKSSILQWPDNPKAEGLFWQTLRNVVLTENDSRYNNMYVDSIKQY
Excerpt: HEK293-Blue-hTLR-8 Cells Assay:
A stable HEK293-Blue-hTLR-8 cell line was purchased from InvivoGen (Cat. #: hkb-htlr8, San Diego, Calif., USA). These cells were originally designed for studying the stimulation of human TLR8 by monitoring the activation of NF-κB. A SEAP (secreted embryonic alkaline phosphatase) reporter gene was placed under the control of the IFN-β minimal promoter fused to five NF-κB and AP-1-binding sites. The SEAP was induced by activating NF-κB and AP-1 via stimulating HEK-Blue hTLR8 cells with TLR8 ligands. Therefore, the reporter expression was declined by TLR8 antagonist under the stimulation of a ligand, such as R848, for incubation of 20 hrs. The cell culture supernatant SEAP reporter activity was determined using QUANTI-Blue™ kit (Cat. #: rep-qb1, Invivogen, San Diego, Calif., USA) at a wavelength of 640 nm, a detection medium that turns purple or blue in the presence of alkaline phosphatase.

Compound	IC50 (human TLR7) [µM]	IC50 (human TLR8) [µM]
C[C@@H]1CN(c2ccc(C#N)c3ncccc23)C[C@@H]2CN(CCc3ccc(N4CC5(CN(C)C5)C4)nc3)CCN21 [Example 22, 5-[(4R,9aS)-4-methyl-8-[2-[6-(6-methyl-2,6-diazaspiro[3.3]heptan-2-yl)-3-pyridyl]ethyl]-3,4,6,7,9,9a-hexahydro-1H-pyrazino[1,2-a]pyrazin-2-yl]quinoline-8-carbonitrile]	0.026	0.058
CO[C@H]1CN(c2ccc(CCN3CCN4[C@@H](C3)CN(c3ccc(C#N)c5ncccc35)C[C@H]4C)cn2)C[C@H]1N [Example 24, 5-[(4R,9aS)-8-[2-[6-[(3R,4S)-3-amino-4-methoxy-pyrrolidin-1-yl]-3-pyridyl]ethyl]-4-methyl-3,4,6,7,9,9a-hexahydro-1H-pyrazino[1,2-a]pyrazin-2-yl]quinoline-8-carbonitrile]	0.008	0.015
CO[C@H]1CN(c2ccc(CCN3CCN4[C@@H](C3)CN(c3ccc(C#N)c5ncccc35)C[C@H]4C)cn2)C[C@@H]1N [Example 25, 5-[(4R,9aS)-8-[2-[6-[(3S,4S)-3-amino-4-methoxy-pyrrolidin-1-yl]-3-pyridyl]ethyl]-4-methyl-3,4,6,7,9,9a-hexahydro-1H-pyrazino[1,2-a]pyrazin-2-yl]quinoline-8-carbonitrile]	0.013	0.025
CO[C@@H]1CN(c2ccc(CCN3CCN4[C@@H](C3)CN(c3ccc(C#N)c5ncccc35)C[C@H]4C)cc2)C[C@H]1N [Example 26, 5-[(4R,9aS)-8-[2-[4-[(3R,4R)-3-amino-4-methoxy-pyrrolidin-1-yl]phenyl]ethyl]-4-methyl-3,4,6,7,9,9a-hexahydro-1H-pyrazino[1,2-a]pyrazin-2-yl]quinoline-8-carbonitrile]	0.018	0.008
C[C@@H]1CN(c2ccc(C#N)c3ncccc23)C[C@@H]2CN(Cc3cccc(N4CCNCC4)n3)CCN21 [Example 27, 5-[(4R,9aS)-4-methyl-8-[(6-piperazin-1-yl-2-pyridyl)methyl]-3,4,6,7,9,9a-hexahydro-1H-pyrazino[1,2-a]pyrazin-2-yl]quinoline-8-carbonitrile]	0.021	0.013
C[C@@H]1CN(c2ccc(C#N)c3ncccc23)C[C@@H]2CN(CCc3ccc(N4CC5(CNCCO5)C4)cc3)CCN21 [Example 28, 5-[(4R,9aS)-4-methyl-8-[2-[4-(5-oxa-2,8-diazaspiro[3.5]nonan-2-yl)phenyl]ethyl]-3,4,6,7,9,9a-hexahydro-1H-pyrazino[1,2-a]pyrazin-2-yl]quinoline-8-carbonitrile]	0.012	0.029
C[C@@H]1CN(c2ccc(C#N)c3ncccc23)C[C@@H]2CN(c3nccc(N4CCNCC4)n3)CCN21 [Example 30, 5-[(4R,9aR)-4-methyl-8-(4-piperazin-1-ylpyrimidin-2-yl)-3,4,6,7,9,9a-hexahydro-1H-pyrazino[1,2-a]pyrazin-2-yl]quinoline-8-carbonitrile]	0.016	0.021
Cc1cc(N2CCN3[C@@H](C2)CN(c2ccc(C#N)c4ncccc24)C[C@H]3C)nc(N2CCNCC2)n1 [Example 31, 5-[(4R,9aR)-4-methyl-8-(6-methyl-2-piperazin-1-yl-pyrimidin-4-yl)-3,4,6,7,9,9a-hexahydro-1H-pyrazino[1,2-a]pyrazin-2-yl]quinoline-8-carbonitrile]	0.022	0.024
C[C@@H]1CN(c2ccc(C#N)c3ncccc23)C[C@@H]2CN(c3ccnc(N4CCNCC4)c3)CCN21 [Example 32, 5-[(4R,9aS)-4-methyl-8-(2-piperazin-1-yl-4-pyridyl)-3,4,6,7,9,9a-hexahydro-1H-pyrazino[1,2-a]pyrazin-2-yl]quinoline-8-carbonitrile]	0.016	0.011
C[C@@H]1CN(c2ccc(C#N)c3ncccc23)C[C@@H]2CN(c3ccnc(N4CCNCC4)n3)CCN21 [Example 33, 5-[(4R,9aR)-4-methyl-8-(2-piperazin-1-ylpyrimidin-4-yl)-3,4,6,7,9,9a-hexahydro-1H-pyrazino[1,2-a]pyrazin-2-yl]quinoline-8-carbonitrile]	0.01	0.008
C[C@@H]1CN(c2ccc(C#N)c3ncccc23)C[C@@H]2CN(c3cc(N4CCNCC4)ccn3)CCN21 [Example 34, 5-[(4R,9aR)-4-methyl-8-(4-piperazin-1-yl-2-pyridyl)-3,4,6,7,9,9a-hexahydro-1H-pyrazino[1,2-a]pyrazin-2-yl]quinoline-8-carbonitrile]	0.02	0.014
N#Cc1ccc(N2CCN3CCN(c4cccc5c4CNC5)CC3C2)c2cccnc12 (stereo not drawn) [Example 35, 5-(8-isoindolin-4-yl-3,4,6,7,9,9a-hexahydro-1H-pyrazino[1,2-a]pyrazin-2-yl)quinoline-8-carbonitrile]	0.029	0.008
CO[C@@H]1CN(c2nccc(N3CCN4[C@@H](C3)CN(c3ccc(C#N)c5ncccc35)C[C@H]4C)n2)C[C@H]1N [Example 36, 5-[(4R,9aR)-8-[2-[(3R,4R)-3-amino-4-methoxy-pyrrolidin-1-yl]pyrimidin-4-yl]-4-methyl-3,4,6,7,9,9a-hexahydro-1H-pyrazino[1,2-a]pyrazin-2-yl]quinoline-8-carbonitrile]	0.013	0.015
CO[C@@H]1CN(c2ccnc(N3CCN4[C@@H](C3)CN(c3ccc(C#N)c5ncccc35)C[C@H]4C)n2)C[C@H]1N [Example 37, 5-[(4R,9aR)-8-[4-[(3R,4R)-3-amino-4-methoxy-pyrrolidin-1-yl]pyrimidin-2-yl]-4-methyl-3,4,6,7,9,9a-hexahydro-1H-pyrazino[1,2-a]pyrazin-2-yl]quinoline-8-carbonitrile]	0.021	0.026
Cc1cc(N2CCNCC2)ncc1N1CCN2CCN(c3ccc(C#N)c4ncccc34)CC2C1 (stereo not drawn) [Example 38, 5-[2-(4-methyl-6-piperazin-1-yl-3-pyridyl)-3,4,6,7,9,9a-hexahydro-1H-pyrazino[1,2-a]pyrazin-8-yl]quinoline-8-carbonitrile]	0.002	0.008

Reference: US20220340597A1, “HEXAHYDRO-1H-PYRAZINO[1,2-A]PYRAZINE COMPOUNDS FOR THE TREATMENT OF AUTOIMMUNE DISEASE” (Hoffmann-La Roche Inc., priority 2019, published 2022)
